US11363979B2, “Addressable vertical nanowire probe arrays and fabrication methods” (priority 2016, dated 2022)
Like-named read-outs stand apart in the source and are kept apart here.

Tests used:
[1] = system: mouse hippocampal neurons; assay: Pharmacological stimulation and inhibition of neurons recorded on the vertical Si nanowire probe array; format: cell-based
[2] = system: human iPSC-derived neurons; format: cell-based

Which “activity relative to the baseline recording” value [1] does the source give for `NC1=N[C@H](O)[C@H]2[C@H]3O[C@]4(O)O[C@@H]([C@@H](O)[C@@]2(N1)[C@@H]4O)[C@]3(O)CO` [TTX, tetrodotoxin] here?
The value was “eliminated”.

What about the “cellular activity / neuronal spiking” value [1] of the same compound?
Its value is “neuronal spiking vanished”.

glutamate was tested. Which “cellular activity / neuronal spiking” value [1] did it give?
The value was “increased”.

What about the “cell activity (frequency and amplitude) compared to the baseline spontaneous activity measured on the same channel” value ([1]; intracellular configuration, injection, nanowire recording) of the same compound?
Its value is “increase of the cell activity with respect to frequency and amplitude”.

Which “firing (rate) of spontaneous action potentials” value [2] does the source give for `[Cl-].[K+]` [KCl] here?
The value was “increased firing rate”.

And the “cellular activity / neuronal spiking” value [1]?
The value was “increased”.

And the “firing (rate) of spontaneous action potentials” value [1]?
The value was “increased firing rate”.

And the “activity relative to the baseline recording” value ([1]; extracellular configuration, injection, nanowire recording)?
Its value is “increased activity relative to the baseline recording”.
